Source: patent publication US6809065B2, “Herbicide containing substituted pyrazole derivative as active ingredient” (SDS Biotech K.K., priority 2001, dated 2004)

How the values were obtained:
Chenopodium album [1] = assay: Upland field foliage treatment (Test Example 1); assay type: in vivo; conditions: foliage treatment 14th day after sowing, wettable powder, 1 kg active ingredient per hectare, evaluated 21st day after application
Procedure, shortened: (§1)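 Weeds and crops were sown in upland soil under about 1 cm cover, and a wettable powder diluted in water was sprayed on the foliage 14 days after sowing at 1 kg active ingredient per hectare. Scoring was done 21 days after application on an index scale, where higher weed scores mean stronger herbicidal effect and lower crop scores mean greater crop safety.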

Digitaria adscendens [2] = assay: Upland field foliage treatment (Test Example 1); assay type: in vivo; conditions: foliage treatment 14th day after sowing, wettable powder, 1 kg active ingredient per hectare, evaluated 21st day after application
Procedure, shortened: as §1

Setaria viridis [3] = assay: Upland field foliage treatment (Test Example 1); assay type: in vivo; conditions: foliage treatment 14th day after sowing, wettable powder, 1 kg active ingredient per hectare, evaluated 21st day after application
Procedure, shortened: as §1

Stellaria media [4] = assay: Upland field foliage treatment (Test Example 1); assay type: in vivo; conditions: foliage treatment 14th day after sowing, wettable powder, 1 kg active ingredient per hectare, evaluated 21st day after application
Procedure, shortened: as §1

soybean (Glycine max) [5] = assay: Upland field foliage treatment (Test Example 1), crop; assay type: in vivo; conditions: foliage treatment 14th day after sowing, 1 kg active ingredient per hectare, evaluated 21st day, lower index = higher safety
Procedure, shortened: as §1

[6] = test system: wheat (Triticum aestivum); assay: as above; assay type: in vivo; conditions: foliage treatment 14th day after sowing, 1 kg active ingredient per hectare, evaluated 21st day, lower index = higher safety
Procedure, shortened: as §1

Chenopodium album [7] = assay: Upland soil treatment (Test Example 2); assay type: in vivo; conditions: soil surface treatment next day after sowing, wettable powder, 1 kg active ingredient per hectare, evaluated 21st day after application
Procedure, shortened: (§2)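 Pre-emergence soil treatment: day after sowing, WP formulation diluted in water, applied uniformly to soil surface at 1 kg a.i./ha. Seeds sown ~1 cm deep in upland soil. Visual index read 21 d after application (weeds: high = effective; crop: low = safe).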

Digitaria adscendens [8] = assay: Upland soil treatment (Test Example 2); assay type: in vivo; conditions: soil surface treatment next day after sowing, wettable powder, 1 kg active ingredient per hectare, evaluated 21st day after application
Procedure, shortened: as §2

Setaria viridis [9] = assay: Upland soil treatment (Test Example 2); assay type: in vivo; conditions: soil surface treatment next day after sowing, wettable powder, 1 kg active ingredient per hectare, evaluated 21st day after application
Procedure, shortened: as §2

Stellaria media [10] = assay: Upland soil treatment (Test Example 2); assay type: in vivo; conditions: soil surface treatment next day after sowing, wettable powder, 1 kg active ingredient per hectare, evaluated 21st day after application
Procedure, shortened: as §2

soybean (Glycine max) [11] = assay: Upland soil treatment (Test Example 2), crop; assay type: in vivo; conditions: soil surface treatment next day after sowing, 1 kg active ingredient per hectare, evaluated 21st day, lower index = higher safety
Procedure, shortened: as §2

[12] = test system: wheat (Triticum aestivum); assay: Upland soil treatment (Test Example 2), crop; assay type: in vivo; conditions: soil surface treatment next day after sowing, 1 kg active ingredient per hectare, evaluated 21st day, lower index = higher safety
Procedure, shortened: as §2

Echinochloa spp. = assay: Paddy field treatment (Test Example 3); assay type: in vivo, Echinochloa crusgalli; conditions: paddy pot, submerged 4 cm, dropped on water surface 10th day after transplantation, 1 kg active ingredient per hectare, evaluated 21st day
Procedure, shortened: (§3)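 Weeds sown in puddled paddy soil under 4 cm water, with two-leaf Koshihikari rice transplanted at 3 cm depth. On day 10 after transplanting, wettable powder applied to the water surface at 1 kg active ingredient per hectare. Herbicidal effect and crop safety scored on an index 21 days later.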

Ammannia multiflora = assay: Paddy field treatment (Test Example 3); assay type: in vivo; conditions: paddy pot, submerged 4 cm, dropped on water surface 10th day after transplantation, 1 kg active ingredient per hectare, evaluated 21st day
Procedure, shortened: as §3

Monochoria vaginalis = assay: Paddy field treatment (Test Example 3); assay type: in vivo; conditions: paddy pot, submerged 4 cm, dropped on water surface 10th day after transplantation, 1 kg active ingredient per hectare, evaluated 21st day
Procedure, shortened: as §3

Scirpus juncoides = assay: Paddy field treatment (Test Example 3); assay type: in vivo; conditions: paddy pot, submerged 4 cm, dropped on water surface 10th day after transplantation, 1 kg active ingredient per hectare, evaluated 21st day
Procedure, shortened: as §3

[13] = test system: rice (Oryza sative, variety: Koshihikari); assay: Paddy field treatment (Test Example 3), crop; assay type: in vivo, Oryza sativa; conditions: transplanted rice two-leaf period, water surface treatment 10th day after transplantation, 1 kg active ingredient per hectare, evaluated 21st day, lower index = higher safety
Procedure, shortened: as §3

Row | Structure (SMILES) | Herbicidal activity Chenopodium album (Chenopodium album [1]) | Herbicidal activity Digitaria adscendens (Digitaria adscendens [2]) | Herbicidal activity Setaria viridis (Setaria viridis [3]) | Herbicidal activity Stellaria media (Stellaria media [4]) | Herbicidal activity Glycine max (soybean (Glycine max) [5]) | Herbicidal activity Triticum aestivum [6] | Herbicidal activity Chenopodium album (Chenopodium album [7]) | Herbicidal activity Digitaria adscendens (Digitaria adscendens [8]) | Herbicidal activity Setaria viridis (Setaria viridis [9]) | Herbicidal activity Stellaria media (Stellaria media [10]) | Herbicidal activity Glycine max (soybean (Glycine max) [11]) | Herbicidal activity Triticum aestivum [12] | Herbicidal activity Echinochloa spp. (Echinochloa spp.) | Herbicidal activity Ammannia multiflora (Ammannia multiflora) | Herbicidal activity Monochoria vaginalis (Monochoria vaginalis) | Herbicidal activity Scirpus juncoides (Scirpus juncoides) | Herbicidal activity Oryza sativa [13]
1 | COC=C(Cn1nc(-c2c(Cl)cccc2Cl)c(Cl)c1C)C(=O)OC [Compound 23] | 4 (herbicidal effect of not less than 70% by weight and less than 90% by weight) | 4 (herbicidal effect of not less than 70% by weight and less than 90% by weight) | 4 (herbicidal effect of not less than 70% by weight and less than 90% by weight) | 5 (herbicidal effect of not less than 90% by weight) | 0 (herbicidal effect of not less than 0% by weight and less than 10% by weight) | 0 (herbicidal effect of not less than 0% by weight and less than 10% by weight) | 4 (herbicidal effect of not less than 70% by weight and less than 90% by weight) | 4 (herbicidal effect of not less than 70% by weight and less than 90% by weight) | 4 (herbicidal effect of not less than 70% by weight and less than 90% by weight) | 4 (herbicidal effect of not less than 70% by weight and less than 90% by weight) | 0 (herbicidal effect of not less than 0% by weight and less than 10% by weight) | 0 (herbicidal effect of not less than 0% by weight and less than 10% by weight) | 3 (herbicidal effect of not less than 50% by weight and less than 70% by weight) | 5 (herbicidal effect of not less than 90% by weight) | 4 (herbicidal effect of not less than 70% by weight and less than 90% by weight) | 3 (herbicidal effect of not less than 50% by weight and less than 70% by weight) | 0 (herbicidal effect of not less than 0% by weight and less than 10% by weight)
2 | COC=C(Cn1cc(C)c(-c2ccccc2)n1)C(=O)OC [Compound 13] | 5 (herbicidal effect of not less than 90% by weight) | 5 (herbicidal effect of not less than 90% by weight) | 5 (herbicidal effect of not less than 90% by weight) | 5 (herbicidal effect of not less than 90% by weight) | 0 (herbicidal effect of not less than 0% by weight and less than 10% by weight) | 0 (herbicidal effect of not less than 0% by weight and less than 10% by weight) | 5 (herbicidal effect of not less than 90% by weight) | 5 (herbicidal effect of not less than 90% by weight) | 5 (herbicidal effect of not less than 90% by weight) | 5 (herbicidal effect of not less than 90% by weight) | 0 (herbicidal effect of not less than 0% by weight and less than 10% by weight) | 0 (herbicidal effect of not less than 0% by weight and less than 10% by weight) | 5 (herbicidal effect of not less than 90% by weight) | 5 (herbicidal effect of not less than 90% by weight) | 5 (herbicidal effect of not less than 90% by weight) | 5 (herbicidal effect of not less than 90% by weight) | 0 (herbicidal effect of not less than 0% by weight and less than 10% by weight)
3 | COC=C(Cn1nc(-c2ccc(Cl)c(Cl)c2)cc1C)C(=O)OC [Compound 10] | 4 (herbicidal effect of not less than 70% by weight and less than 90% by weight) | 4 (herbicidal effect of not less than 70% by weight and less than 90% by weight) | 4 (herbicidal effect of not less than 70% by weight and less than 90% by weight) | 4 (herbicidal effect of not less than 70% by weight and less than 90% by weight) | 0 (herbicidal effect of not less than 0% by weight and less than 10% by weight) | 0 (herbicidal effect of not less than 0% by weight and less than 10% by weight) | 4 (herbicidal effect of not less than 70% by weight and less than 90% by weight) | 5 (herbicidal effect of not less than 90% by weight) | 4 (herbicidal effect of not less than 70% by weight and less than 90% by weight) | 4 (herbicidal effect of not less than 70% by weight and less than 90% by weight) | 0 (herbicidal effect of not less than 0% by weight and less than 10% by weight) | 0 (herbicidal effect of not less than 0% by weight and less than 10% by weight) | 3 (herbicidal effect of not less than 50% by weight and less than 70% by weight) | 3 (herbicidal effect of not less than 50% by weight and less than 70% by weight) | 3 (herbicidal effect of not less than 50% by weight and less than 70% by weight) | 3 (herbicidal effect of not less than 50% by weight and less than 70% by weight) | 0 (herbicidal effect of not less than 0% by weight and less than 10% by weight)
4 | COC=C(Cn1nc(-c2ccc(Cl)cc2Cl)c(Cl)c1C)C(=O)OC [Compound 21] | 5 (herbicidal effect of not less than 90% by weight) | 5 (herbicidal effect of not less than 90% by weight) | 4 (herbicidal effect of not less than 70% by weight and less than 90% by weight) | 5 (herbicidal effect of not less than 90% by weight) | 1 (herbicidal effect of not less than 10% by weight and less than 30% by weight) | 0 (herbicidal effect of not less than 0% by weight and less than 10% by weight) | 4 (herbicidal effect of not less than 70% by weight and less than 90% by weight) | 4 (herbicidal effect of not less than 70% by weight and less than 90% by weight) | 4 (herbicidal effect of not less than 70% by weight and less than 90% by weight) | 4 (herbicidal effect of not less than 70% by weight and less than 90% by weight) | 0 (herbicidal effect of not less than 0% by weight and less than 10% by weight) | 0 (herbicidal effect of not less than 0% by weight and less than 10% by weight) | 5 (herbicidal effect of not less than 90% by weight) | 5 (herbicidal effect of not less than 90% by weight) | 5 (herbicidal effect of not less than 90% by weight) | 4 (herbicidal effect of not less than 70% by weight and less than 90% by weight) | 0 (herbicidal effect of not less than 0% by weight and less than 10% by weight)
